# Test results published in patent publication US9539301B2, “Melanotropin ligands for skin care” (THE ARIZONA BOARD OF REGENTS ON BEHALF OF THE UNIVERSITY OF …, priority 2011, dated 2017).
# Square brackets hold non-standard residues; d marks the D form. Side chains are listed from the residue outwards. Peptide text beside a SMILES is read from it. * marks the point of attachment. Cy5 maleimide = Cy5 dye as its maleimide, reacted with a thiol compound; d2Nal = N[C@H](Cc1ccc2ccccc2c1)C(=O)O; Butanoyl(4-Ph) = O=C(CCCc1ccccc1)*; Butanoyl(4-ethynyl) = C#CCCCC(=O)*; Nle = CCCC[C@H](N)C(=O)O; Mpa = O=C(O)CCS
# Experiments:
# [1] = target: MC1R (Homo sapiens, UniProt Q01726); experiment: Europium time-resolved fluorescence competitive binding assay (Eu-NDP-α-MSH) on HCT116/hMC1R cells; design: host or cells: HCT116; conditions: for 1R/4R selectivity (values determined): ratio of MC4R Ki to MC1R Ki
# MC1R, sequence (Q01726 whole entry): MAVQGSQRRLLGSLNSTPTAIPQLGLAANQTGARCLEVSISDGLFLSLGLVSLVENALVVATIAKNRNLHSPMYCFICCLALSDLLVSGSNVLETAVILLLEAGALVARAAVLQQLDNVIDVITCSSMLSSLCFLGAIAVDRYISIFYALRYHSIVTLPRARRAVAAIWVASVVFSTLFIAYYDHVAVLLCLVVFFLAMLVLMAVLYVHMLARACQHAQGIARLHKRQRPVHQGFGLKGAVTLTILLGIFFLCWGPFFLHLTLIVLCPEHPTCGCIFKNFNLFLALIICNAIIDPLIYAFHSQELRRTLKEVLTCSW
# Method: (§1) HCT116 cells overexpressing hMC1R and HEK293 cells overexpressing hMC4R[23] or hMC5R were used in all studies. […] Cells were maintained under standard conditions (37° C. and 5% CO2) and were grown in Dulbecco's modified Eagle medium (DMEM) supplemented with 10% FBS and 5% penicillin/streptomycin. For HCT116/hMC1R cells, geneticin (G418S, 0.4 mg/mL) was added to the media to ensure proper selection.
# Competitive binding assays were performed using HCT116/hMC1R cells and HEK293/hMC4R or hMC5R as previously described, with slight modifications. […] Poly-D-Lysine Coated Plates contain a PDL polymer coating that creates a uniform positive charge at the surface of the plastic, thereby facilitating cell attachment, growth and differentiation. […] Both labeled and non-labeled ligands were diluted in binding media (DMEM, 1 mM 1,10-phenanthroline, 200 mg/L bacitracin, 0.5 mg/L leupeptin, 0.3% BSA). In the case of the triblock polymer micelle solutions, micelles were allowed to equilibrate in solution for a period of 30 min prior to cell addition. Cells were incubated with labeled and non-labeled ligands for 1 hour at 37° C. Following incubation, cells were washed three times with wash buffer (50 mM Tris-HCl, 0.2% BSA, 30 mM NaCl) and 50 µL of enhancement solution (PerkinElmer) was added to each well. Cells were incubated for an additional 30 min at 37° C. prior to reading. […] Competition curves were analyzed with GraphPad Prism software using the sigmoidal dose-response (variable slope) classical equation for nonlinear regression analysis.
# Competitive binding assays were also performed using 4-targeted triblock polymers, triblock polymer micelles, as well as untargeted micelles as a control (FIG. 4A-C).
# Europium binding assays were conducted as previously published.^33, 40
# Time-resolved lanthanide fluorescence competitive binding assays^33, 40 were performed in an effort to optimize ligand loading for maximal avidity. In these assays, increasing concentrations of micelles were measured for their ability to competitively displace Eu-labeled NDP-α-MSH 2. The remaining Eu was then measured using time resolved fluorescence (TRF, see Methods).
# [2] = target: MC4R (Homo sapiens, UniProt P32245); experiment: Europium competitive binding assay on HEK293/hMC4R cells; design: expressed in transfected cells; host or cells: HEK293
# MC4R, sequence (P32245 whole entry): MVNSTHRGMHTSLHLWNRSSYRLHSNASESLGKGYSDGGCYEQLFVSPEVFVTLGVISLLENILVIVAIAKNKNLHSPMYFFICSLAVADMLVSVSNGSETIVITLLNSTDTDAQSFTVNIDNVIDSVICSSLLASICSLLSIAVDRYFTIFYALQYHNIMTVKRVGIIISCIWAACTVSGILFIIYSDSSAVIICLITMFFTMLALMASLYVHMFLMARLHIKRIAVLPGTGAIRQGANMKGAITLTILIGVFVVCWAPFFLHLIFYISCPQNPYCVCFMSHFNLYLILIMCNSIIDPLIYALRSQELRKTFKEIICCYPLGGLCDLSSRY
# Method: as §1
# Competitive binding assays were performed using HCT116/hMC1R cells and HEK293/hMC4R or hMC5R as previously described, with slight modifications. HCT116/hMC1R cells were plated in black PerkinElmer 96-well plates and HEK293/hMC4R and HEK293/hMC5R cells were plated on SigmaScreen Poly-D-Lysine Coated Plates (SigmaAldrich), all at a density of 10,000-30,000 cells/well. Poly-D-Lysine Coated Plates contain a PDL polymer coating that creates a uniform positive charge at the surface of the plastic, thereby facilitating cell attachment, growth and differentiation. […] Both labeled and non-labeled ligands were diluted in binding media (DMEM, 1 mM 1,10-phenanthroline, 200 mg/L bacitracin, 0.5 mg/L leupeptin, 0.3% BSA). […] Cells were incubated for an additional 30 min at 37° C. prior to reading. […] Competition curves were analyzed with GraphPad Prism software using the sigmoidal dose-response (variable slope) classical equation for nonlinear regression analysis.
# [3] = target: MC5R (Homo sapiens, UniProt P33032); experiment: Europium competitive binding assay on HEK293/hMC5R cells; design: expressed in transfected cells; host or cells: HEK293
# MC5R, sequence (P33032 whole entry): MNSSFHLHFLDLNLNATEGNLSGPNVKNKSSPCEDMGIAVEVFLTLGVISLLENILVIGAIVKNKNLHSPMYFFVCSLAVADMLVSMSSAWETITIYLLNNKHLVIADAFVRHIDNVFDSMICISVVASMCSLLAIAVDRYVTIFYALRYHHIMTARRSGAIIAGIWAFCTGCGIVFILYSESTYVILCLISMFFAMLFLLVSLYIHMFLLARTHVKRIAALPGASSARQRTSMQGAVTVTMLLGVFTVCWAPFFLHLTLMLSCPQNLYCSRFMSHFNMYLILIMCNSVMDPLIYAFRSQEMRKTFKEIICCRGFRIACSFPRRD
# Method: HCT116 cells overexpressing hMC1R and HEK293 cells overexpressing hMC4R[23] or hMC5R were used in all studies. The parental human colorectal carcinoma cell line, HCT116 (American Type Culture Collection, CCL 247) was also used. Cells were maintained under standard conditions (37° C. and 5% CO2) and were grown in Dulbecco's modified Eagle medium (DMEM) supplemented with 10% FBS and 5% penicillin/streptomycin. For HCT116/hMC1R cells, geneticin (G418S, 0.4 mg/mL) was added to the media to ensure proper selection.
# Competitive binding assays were performed using HCT116/hMC1R cells and HEK293/hMC4R or hMC5R as previously described, with slight modifications. HCT116/hMC1R cells were plated in black PerkinElmer 96-well plates and HEK293/hMC4R and HEK293/hMC5R cells were plated on SigmaScreen Poly-D-Lysine Coated Plates (SigmaAldrich), all at a density of 10,000-30,000 cells/well. […] Cells were incubated for an additional 30 min at 37° C. prior to reading. The plates were read on a PerkinElmer VICTOR×4 2030 multilabel reader using the standard Eu TRF measurement (340 nm excitation, […], and emission collection for […] at 615 nm). Competition curves were analyzed with GraphPad Prism software using the sigmoidal dose-response (variable slope) classical equation for nonlinear regression analysis. […]
# [4] = tested on: A375/MC1R xenograft tumor; experiment: Intravital confocal imaging of dorsal skin-fold window chamber tumor xenograft; type: in vivo, SCID mouse; conditions: for tumor cell internalization of probe: 24 h after injection
# Method: All procedures were carried out in compliance with the Guide for the Care and Use of Laboratory Animal Resources (1996), National Research Council, and approved by the Institutional Animal Care and Use Committee, University of South Florida. A dorsal skin-fold window chamber was used to study the pharmacokinetics of imaging agent uptake immediately after i.v. injection of the probe. Starting 3 days prior to the surgery, mice were daily administered 1 ml of sterile saline subcutaneously at the planned site of the window in order to loosen connective tissue and create a receiving “pocket”. SCID mice were prepared immediately before surgery; the surgical site was shaved, and then a combination of oxygen and isoflurane was used for anesthesia (animals underwent induction with 3.5% isoflurane and were maintained at 1.5-2.0%). The window chamber method utilizes a titanium steel or plexiglass “saddle” that is sutured to the back of the mouse and holds a flap of dorsal skin vertically away from the mouse's body. A small “window” of skin (approximately 5 mm in diameter) was surgically excised from the retained skin flap of the anesthetized SCID mouse. Tumor constructs were engineered using the tumor droplet method. A375/MC1R or A375 parental melanoma cells were suspended in 2.5 mg/ml of type I collagen (BD Biosciences #354249) and 1×DMEM at a final concentration of 2.5×10^6 cells/ml. Using a 48-well non-tissue culture plate, a 15 µl drop of the tumor cell suspension was polymerized in the center of the well. After brief polymerization (10-15 minutes) at 37° C., a microvessel outer layer was added that completely surrounded the droplet. The microvessel outer layer consisted of 3 mg/ml of type I collagen, 1×DMEM and, 12,000 to 15,000 GFP expressing rat microvessel fragments/ml. After 4-6 days of culture at 37 C, the constructs were then implanted into the “window chamber” by placing them directly onto the exposed subcutaneous fascia. A glass cover was then attached to the center of the “saddle” to cover the fascia and implanted tumor cells. […]
compound,measurement,setting,value
"CC(=O)N[C@@H](CCc1ccccc1)C(=O)N[C@@H](Cc1cnc[nH]1)C(=O)N[C@H](Cc1ccccc1)C(=O)N[C@@H](CCCN=C(N)N)C(=O)N[C@@H](Cc1c[nH]c2ccccc12)C(N)=O [Compound 2, Ac-Homophenylalanine-His-DPhe-Arg-Trp-NH2]",Ki,"[1]; HCT116/hMC1R cells, competition with Eu-NDP-α-MSH, read-out: Ki MC1R (values determined)",1.77 nM
"N=C(N)NCCC[C@H](NC(=O)[C@@H](Cc1ccccc1)NC(=O)[C@H](Cc1c[nH]cn1)NC(=O)C=Cc1ccc(O)cc1)C(=O)N[C@@H](Cc1c[nH]c2ccccc12)C(N)=O [Compound 3, 4-hydroxycinnamoyl-His-DPhe-Arg-Trp-NH2]",Ki MC1R (values determined),"[1]; HCT116/hMC1R cells, competition with Eu-NDP-α-MSH",no affinity
same,Ki MC4R (values determined),[2],no affinity
same,Ki MC5R (values determined),[3],no affinity
"C#CCCCC(=O)NCCCC[C@H](NC(=O)CNC(=O)[C@H](Cc1c[nH]c2ccccc12)NC(=O)[C@H](CCCNC(=N)N)NC(=O)[C@@H](Cc1ccccc1)NC(=O)[C@H](Cc1c[nH]cn1)NC(=O)CCCc1ccccc1)C(N)=O [Compound 4, 4-phenylbutyry1-His-DPhe-Arg-Trp-Gly-Lys(hex-5-ynoyl)-NH2] ({Butanoyl(4-Ph)}-H[dF]RWGK(Butanoyl(4-ethynyl))-NH2)",1R/4R selectivity (values determined),[1],1000
same,1R/5R selectivity (values determined),[1]; ratio of MC5R Ki to MC1R Ki,200
"C#CCCCC(=O)NCCCC[C@H](N)C(=O)N[C@@H](Cc1ccc(O)cc1)C(=O)N[C@H](C(=O)N[C@@H](CCCC)C(=O)NCC(=O)N[C@@H](Cc1cnc[nH]1)C(=O)N[C@H](Cc1ccc2ccccc2c1)C(=O)N[C@@H](CCCNC(=N)N)C(=O)N[C@H](Cc1c[nH]c2ccccc12)C(=O)N[C@@H](CC(=O)O)C(=O)N[C@@H](CCCNC(=N)N)C(=O)N[C@@H](Cc1ccccc1)C(=O)NCC(N)=O)C(C)C [Compound 6, H-Lys(hex-5-ynoyl)-Tyr-Val-Nle-Gly-His-DNal(2′)-Arg-DTrp-Asp-Arg-Phe-Gly-NH2]",Ki,[2]; read-out: Ki MC4R (values determined),1.74 nM
same,Ki,[3]; read-out: Ki MC5R (values determined),1.48 nM
"C#CCCCC(=O)NCCCC[C@H](N)C(=O)N[C@@H](Cc1ccc(O)cc1)C(=O)N[C@H](C(=O)N[C@@H](CCCC)C(=O)NCC(=O)N[C@@H](Cc1c[nH]cn1)C(=O)N[C@H](Cc1ccc2ccccc2c1)C(=O)N[C@@H](CCCNC(=N)N)C(=O)N[C@H](Cc1ccccc1)C(=O)N[C@@H](CC(=O)O)C(=O)N[C@@H](CCCNC(=N)N)C(=O)N[C@@H](Cc1ccccc1)C(=O)NCC(N)=O)C(C)C [Compound 8, H-Lys(hex-5-ynoyl)Tyr-Val-Nle-Gly-His-DNal(2′)-Arg-DPhe-Asp-Arg-Phe-Gly-NH2] (H-K(Butanoyl(4-ethynyl))YV[Nle]GH[d2Nal]R[dF]DRFG-NH2)",1R/4R selectivity (values determined),[1],1.05
MC1R-Cy5: MC1R ligand conjugated to Cy5 maleimide dye ({Butanoyl(4-Ph)}-H[dF]RWGK([Mpa-Cy5 maleimide])-NH2),tumor cell internalization of probe,[4],fully internalized
same,tumor cell internalization of probe,[4]; listed as MC1R-635 probe,detected inside the cells
same,time at which probe binds tumor cells in vivo,"[4]; after i.v. injection, 5 nmol/kg",≤ 5 min
